Paper PMC2782309 (2009)

Target: TRPM2 (transient receptor potential cation channel, subfamily melastatin, member 2) (Homo sapiens, UniProt O94759)
Test: whole-cell patch clamp with ADPR infused through the pipette
Assay type: cell-based

Chain of TRPM2 (transient receptor potential cation channel, subfamily melastatin, member 2) (O94759 whole entry, the tested form may be a part): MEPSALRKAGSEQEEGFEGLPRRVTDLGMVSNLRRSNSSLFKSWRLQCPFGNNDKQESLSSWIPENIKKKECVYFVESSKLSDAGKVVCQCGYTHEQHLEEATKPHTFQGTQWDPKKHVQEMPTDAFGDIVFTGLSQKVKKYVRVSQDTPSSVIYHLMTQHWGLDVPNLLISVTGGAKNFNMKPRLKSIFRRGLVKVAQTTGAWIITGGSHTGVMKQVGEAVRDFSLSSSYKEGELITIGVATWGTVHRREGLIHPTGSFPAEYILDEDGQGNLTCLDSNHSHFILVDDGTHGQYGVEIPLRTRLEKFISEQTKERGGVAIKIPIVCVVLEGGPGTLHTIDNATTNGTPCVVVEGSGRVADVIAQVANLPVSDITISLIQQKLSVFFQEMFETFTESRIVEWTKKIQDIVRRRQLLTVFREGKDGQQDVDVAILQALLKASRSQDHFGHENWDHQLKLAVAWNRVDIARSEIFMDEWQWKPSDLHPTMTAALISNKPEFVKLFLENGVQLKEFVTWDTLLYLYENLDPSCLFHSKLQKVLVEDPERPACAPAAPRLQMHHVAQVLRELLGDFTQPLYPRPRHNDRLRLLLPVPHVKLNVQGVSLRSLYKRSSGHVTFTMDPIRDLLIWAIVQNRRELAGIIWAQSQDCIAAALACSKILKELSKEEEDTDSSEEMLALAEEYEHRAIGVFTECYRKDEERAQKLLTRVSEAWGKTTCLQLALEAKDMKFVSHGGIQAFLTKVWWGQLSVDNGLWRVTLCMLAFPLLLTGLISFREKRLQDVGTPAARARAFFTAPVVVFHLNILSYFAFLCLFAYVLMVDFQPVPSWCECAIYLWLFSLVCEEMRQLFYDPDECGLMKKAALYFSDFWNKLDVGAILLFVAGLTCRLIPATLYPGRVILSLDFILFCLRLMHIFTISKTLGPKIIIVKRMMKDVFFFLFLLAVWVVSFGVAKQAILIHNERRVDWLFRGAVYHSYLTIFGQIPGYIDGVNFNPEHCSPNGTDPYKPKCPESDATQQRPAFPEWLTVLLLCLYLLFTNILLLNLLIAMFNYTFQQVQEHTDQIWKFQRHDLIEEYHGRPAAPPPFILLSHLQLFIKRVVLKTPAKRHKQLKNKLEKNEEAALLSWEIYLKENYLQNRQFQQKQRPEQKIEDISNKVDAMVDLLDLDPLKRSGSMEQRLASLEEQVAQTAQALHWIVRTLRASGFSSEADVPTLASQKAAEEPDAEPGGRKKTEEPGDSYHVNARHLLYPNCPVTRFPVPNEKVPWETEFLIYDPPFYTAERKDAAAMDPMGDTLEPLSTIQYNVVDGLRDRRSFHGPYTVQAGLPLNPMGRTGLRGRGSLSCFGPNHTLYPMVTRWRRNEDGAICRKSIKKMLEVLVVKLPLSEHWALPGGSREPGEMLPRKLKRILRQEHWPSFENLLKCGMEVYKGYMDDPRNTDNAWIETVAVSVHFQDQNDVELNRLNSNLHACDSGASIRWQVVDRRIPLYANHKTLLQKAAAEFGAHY

With Nc1ncnc2c1ncn2[C@@H]1O[C@H](COP(=O)(O)OP(=O)(O)OC[C@H]2OC(O)[C@H](O)[C@@H]2O)[C@@H](O)[C@H]1O (stereo partly shown) [ADPR] the EC50 was 133 µM.
